According to article PMC4937797 (Antiviral research, 2016):
Values after ≈ are worked out from the molar mass of the structure shown. “Also recorded” adds a separate entry of the source. Read-outs that look alike come from different tables or passages of the source.

Legend:
[1] = system: subgenomic RSV replicon; assay type: cell-based, Respiratory syncytial virus; details: for EC50: read-out: Replicon EC50, APC126-E RSV replicon cells, 48 hours, luminescence; for activity in the primary screen (RSV replicon), in words: 10 μM, HTS data
[2] = system: RSV A Long; assay type: cell-based, Respiratory syncytial virus; details: read-out: RSV Long EC50; Hep2 cells, CPE assay
[3] = system: RSV B Washington; assay type: cell-based, Respiratory syncytial virus; details: read-out: RSV B EC50, Hep2 cells, CPE assay
[4] = Aqueous solubility; assay type: physicochemical
[5] = LogD; assay type: physicochemical
[6] = Plasma protein binding; assay type: in vitro ADME
[7] = Microsomal stability; assay type: in vitro ADME; details: human liver microsomes
[8] = Hepatic clearance; assay type: in vitro ADME
[9] = biological target: hERG channel (Homo sapiens, UniProt Q12809); experiment: hERG channel inhibition; assay type: biochemical
Chain of hERG channel (Q12809 whole entry): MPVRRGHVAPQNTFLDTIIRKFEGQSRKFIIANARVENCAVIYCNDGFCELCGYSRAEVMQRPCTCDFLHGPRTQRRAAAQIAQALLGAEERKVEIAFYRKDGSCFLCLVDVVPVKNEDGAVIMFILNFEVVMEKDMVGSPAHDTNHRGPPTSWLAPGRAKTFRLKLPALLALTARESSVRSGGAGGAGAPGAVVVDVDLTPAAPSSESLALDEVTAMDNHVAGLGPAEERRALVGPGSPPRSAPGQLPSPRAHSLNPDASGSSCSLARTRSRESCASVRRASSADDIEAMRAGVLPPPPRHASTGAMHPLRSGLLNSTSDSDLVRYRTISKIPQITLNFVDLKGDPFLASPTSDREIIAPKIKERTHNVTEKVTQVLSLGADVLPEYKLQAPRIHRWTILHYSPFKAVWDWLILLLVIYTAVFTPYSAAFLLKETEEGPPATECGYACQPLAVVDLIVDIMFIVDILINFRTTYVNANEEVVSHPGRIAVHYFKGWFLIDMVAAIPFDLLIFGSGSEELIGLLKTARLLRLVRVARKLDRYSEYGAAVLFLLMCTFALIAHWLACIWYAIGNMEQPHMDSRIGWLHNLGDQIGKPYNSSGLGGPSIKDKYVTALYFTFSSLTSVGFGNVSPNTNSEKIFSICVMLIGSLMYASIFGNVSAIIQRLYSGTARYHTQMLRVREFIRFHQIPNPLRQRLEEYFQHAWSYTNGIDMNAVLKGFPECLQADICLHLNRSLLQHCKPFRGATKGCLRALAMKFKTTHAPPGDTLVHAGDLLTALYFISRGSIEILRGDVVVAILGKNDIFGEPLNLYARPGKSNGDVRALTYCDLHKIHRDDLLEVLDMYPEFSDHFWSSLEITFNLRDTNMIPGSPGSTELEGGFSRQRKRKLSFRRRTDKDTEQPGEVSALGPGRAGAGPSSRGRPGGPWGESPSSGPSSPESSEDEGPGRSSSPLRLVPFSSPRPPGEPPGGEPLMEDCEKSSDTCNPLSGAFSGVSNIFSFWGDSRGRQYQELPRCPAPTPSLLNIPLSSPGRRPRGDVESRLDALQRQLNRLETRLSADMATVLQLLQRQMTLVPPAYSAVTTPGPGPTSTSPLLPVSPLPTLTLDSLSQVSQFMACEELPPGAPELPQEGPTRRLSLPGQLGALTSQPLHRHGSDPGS

[10] = system: RSV N mutant (nucleoprotein mutations); assay type: cell-based, Respiratory syncytial virus; details: for EC50: read-out: N Mutant EC50, CPE assay, RSV604-resistant N mutant virus
[11] = system: RSV L mutant (Y1631H in L polymerase); assay type: cell-based, Respiratory syncytial virus; details: for EC50: read-out: L Mutant EC50
[12] = biological target: RSV polymerase (L/P complex) (Human respiratory syncytial virus A, UniProt P28887); experiment: In vitro RNA synthesis assay with purified L/P complex; assay type: biochemical
Chain of RSV polymerase (L/P complex) (P03421 whole entry): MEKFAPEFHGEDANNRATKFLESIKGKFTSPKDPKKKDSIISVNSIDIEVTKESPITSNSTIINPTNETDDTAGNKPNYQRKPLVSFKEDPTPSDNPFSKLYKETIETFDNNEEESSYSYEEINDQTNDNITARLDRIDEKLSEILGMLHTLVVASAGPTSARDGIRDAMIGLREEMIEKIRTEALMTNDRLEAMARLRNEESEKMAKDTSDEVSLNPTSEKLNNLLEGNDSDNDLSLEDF
Chain of RSV polymerase (L/P complex) (P28887 whole entry): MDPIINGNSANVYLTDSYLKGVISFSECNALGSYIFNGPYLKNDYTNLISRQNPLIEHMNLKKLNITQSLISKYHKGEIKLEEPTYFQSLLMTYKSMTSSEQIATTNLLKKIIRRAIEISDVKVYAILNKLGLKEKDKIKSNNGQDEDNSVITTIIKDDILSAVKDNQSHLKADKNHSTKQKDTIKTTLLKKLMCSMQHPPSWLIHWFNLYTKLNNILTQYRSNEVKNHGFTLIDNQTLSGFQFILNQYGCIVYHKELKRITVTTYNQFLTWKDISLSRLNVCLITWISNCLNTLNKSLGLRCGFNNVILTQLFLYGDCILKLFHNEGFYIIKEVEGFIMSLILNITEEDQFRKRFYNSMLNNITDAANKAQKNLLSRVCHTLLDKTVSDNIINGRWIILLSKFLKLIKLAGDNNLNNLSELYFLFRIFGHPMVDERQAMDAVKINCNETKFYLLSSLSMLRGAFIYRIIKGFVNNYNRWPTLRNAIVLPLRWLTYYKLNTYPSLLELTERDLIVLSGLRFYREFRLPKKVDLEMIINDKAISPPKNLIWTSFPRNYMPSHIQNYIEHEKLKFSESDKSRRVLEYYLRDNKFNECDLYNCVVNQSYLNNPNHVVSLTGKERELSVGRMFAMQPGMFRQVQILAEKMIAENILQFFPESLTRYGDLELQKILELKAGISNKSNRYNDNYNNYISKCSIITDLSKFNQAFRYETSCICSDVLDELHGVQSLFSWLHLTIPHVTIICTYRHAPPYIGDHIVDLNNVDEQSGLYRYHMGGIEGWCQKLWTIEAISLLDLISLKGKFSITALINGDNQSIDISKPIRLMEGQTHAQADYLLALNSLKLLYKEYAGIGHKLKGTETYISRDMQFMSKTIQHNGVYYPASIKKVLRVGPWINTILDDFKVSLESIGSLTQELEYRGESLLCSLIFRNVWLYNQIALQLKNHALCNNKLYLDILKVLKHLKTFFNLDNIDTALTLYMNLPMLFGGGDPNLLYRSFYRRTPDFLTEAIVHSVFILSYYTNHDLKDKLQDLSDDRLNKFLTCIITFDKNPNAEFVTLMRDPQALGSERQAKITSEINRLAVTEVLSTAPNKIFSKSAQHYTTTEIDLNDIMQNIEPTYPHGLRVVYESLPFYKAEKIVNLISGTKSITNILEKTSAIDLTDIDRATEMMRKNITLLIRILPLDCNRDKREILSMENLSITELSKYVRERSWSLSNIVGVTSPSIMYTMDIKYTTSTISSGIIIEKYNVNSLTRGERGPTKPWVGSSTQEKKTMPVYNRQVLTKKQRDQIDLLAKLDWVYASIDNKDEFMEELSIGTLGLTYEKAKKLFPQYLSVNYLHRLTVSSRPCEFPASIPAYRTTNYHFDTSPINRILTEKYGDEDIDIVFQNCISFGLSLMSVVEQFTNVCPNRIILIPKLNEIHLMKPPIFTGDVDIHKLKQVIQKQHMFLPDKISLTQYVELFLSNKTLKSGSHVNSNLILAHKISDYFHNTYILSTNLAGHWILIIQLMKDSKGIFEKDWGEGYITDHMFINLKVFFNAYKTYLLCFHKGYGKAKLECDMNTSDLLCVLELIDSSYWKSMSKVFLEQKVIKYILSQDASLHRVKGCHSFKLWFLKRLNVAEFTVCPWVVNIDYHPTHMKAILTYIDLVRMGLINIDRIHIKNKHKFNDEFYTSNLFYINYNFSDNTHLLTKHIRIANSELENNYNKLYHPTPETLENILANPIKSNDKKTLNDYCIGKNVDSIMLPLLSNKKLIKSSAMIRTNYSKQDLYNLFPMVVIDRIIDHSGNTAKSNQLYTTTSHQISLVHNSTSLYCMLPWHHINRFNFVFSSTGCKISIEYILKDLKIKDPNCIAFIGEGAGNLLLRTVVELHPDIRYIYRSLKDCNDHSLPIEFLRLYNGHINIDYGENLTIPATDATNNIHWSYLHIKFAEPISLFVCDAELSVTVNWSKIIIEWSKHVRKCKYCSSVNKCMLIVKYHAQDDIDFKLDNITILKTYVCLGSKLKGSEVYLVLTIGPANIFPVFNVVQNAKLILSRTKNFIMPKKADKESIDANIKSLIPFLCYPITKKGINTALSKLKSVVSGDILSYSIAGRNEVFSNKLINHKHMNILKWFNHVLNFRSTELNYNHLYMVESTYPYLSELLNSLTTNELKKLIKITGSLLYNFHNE

[13] = system: T7 RNA polymerase
[14] = system: subgenomic RSV replicon; details: read-out: Replicon EC50; assay validation; ref Tiong-Yip et al (2014); cited from earlier work

Question: For `COc1cc(CN2CC3(CCN(S(=O)(=O)c4cn(C)cn4)CC3)c3c(n(C)c4cc(OC)ccc34)[C@H]2CO)cc(OC)c1` [BRD3482], which EC50 [1] is on record?
Answer: 7.2 µM

Question: And the EC50 [2]?
Answer: 1 µM

Question: And the EC50 [3]?
Answer: 4.7 µM

Question: What about the Solubility [4] of the same compound?
Answer: 22 µM (≈ 13.4 µg/mL)

Question: What about the LogD [5] of the same compound?
Answer: 2.9

Question: What about the “PPB (% free)” value [6] of the same compound?
Answer: 3.8 % free

Question: For `Cc1cccc(-c2ccc([C@@H]3[C@@H](CO)N4CCCCN(S(=O)(=O)c5cn(C)cn5)C[C@@H]34)cc2)c1` [BRD3969], which “activity in the primary screen (RSV replicon), in words” value [1] is on record?
Answer: weak but significant activity

Question: And the EC50 [1]?
Answer: 4.2 µM

Question: And the EC50 [2]?
Answer: 3.9 µM

Question: What about the EC50 [3] of the same compound?
Answer: > 50 µM

Question: What about the Solubility [4] of the same compound?
Answer: 49 µM (≈ 23.6 µg/mL)

Question: And the LogD [5]?
Answer: 3.6

Question: What about the HLM [7] of the same compound?
Answer: 77.9 µL/min/mg

Question: And the Rhep [8]?
Answer: 61.7 μL/min/10^6 cells

Question: What about the “PPB (% free)” value [6] of the same compound?
Answer: 1.6 % free

Question: What about the “hERG (% inh at 11 μM)” value [9] of the same compound?
Answer: 14%

Question: What about the “N Mutant fold shift” value [10] of the same compound?
Answer: 6.9 μM (1.8x)

Question: What about the EC50 [10] of the same compound?
Answer: 6.9 µM

Question: What about the “L Mutant fold shift” value [11] of the same compound?
Answer: > 25 μM (>6x)

Question: What about the “shift in activity against the L-mutant strain” value (shortened to “shift in activity”) [11] of the same compound?
Answer: greater than 6 fold

Question: And the EC50 [11]?
Answer: > 25 µM

Question: And the “effect on RSV RNA synthesis initiation or elongation in vitro” value ([12]; 1000 μM, data not shown)?
Answer: no effect

Question: And the “effect on in vitro RNA synthesis (de novo synthesis, back-priming)” value ([12]; concentrations up to 100 μM, 30 °C, 2 h)?
Answer: does not inhibit the ability of the polymerase to synthesize RNA; also recorded: no discernible effect

Question: And the “effect on T7 RNA polymerase (input minigenome template)” value [13]?
Answer: inhibited T7 RNA polymerase

Question: Which EC50 [1] does the source give for `CN1c2ccc(-c3ccc(C#N)cc3)cc2[C@H]2[C@H](CCN2C(=O)c2cccc(F)c2)[C@@H]1CO` [BRD4517] here?
Answer: 10.6 µM

Question: And the EC50 [2]?
Answer: 1.6 µM

Question: And the EC50 [3]?
Answer: 5.5 µM

Question: With `COc1ccc2c3c([nH]c2c1)[C@H](CO)N(Cc1ccccc1)CC31CCN(C(=O)Cc2ccccc2)CC1` [BRD5449] as the compound, how does the EC50 [1] read?
Answer: 4.9 µM

Question: What about the EC50 [2] of the same compound?
Answer: 6.8 µM

Question: And the EC50 [3]?
Answer: > 50 µM

Question: What about the Solubility [4] of the same compound?
Answer: 16 µM (≈ 8.15 µg/mL)

Question: What about the LogD [5] of the same compound?
Answer: >4.4

Question: What about the HLM [7] of the same compound?
Answer: 465 µL/min/mg

Question: What about the Rhep [8] of the same compound?
Answer: 194 μL/min/10^6 cells

Question: And the “PPB (% free)” value [6]?
Answer: <1 % free

Question: For `O=S(=O)(c1cccs1)N1CCCCN2[C@H](CO)[C@@H](c3ccc(/C=C/c4ccccc4)cc3)[C@@H]2C1` [BRD9101], which “% inhibition of the RSV replicon in the primary screen” value ([1]; 10 uM, single concentration HTS) is on record?
Answer: 70%

Question: And the EC50 [1]?
Answer: 4.3 µM

Question: And the EC50 [2]?
Answer: 1.7 µM

Question: And the EC50 [3]?
Answer: > 50 µM

Question: And the Solubility [4]?
Answer: <1 µM

Question: What about the LogD [5] of the same compound?
Answer: >4.8

Question: What about the HLM [7] of the same compound?
Answer: 57.1 µL/min/mg

Question: And the Rhep [8]?
Answer: 67.8 μL/min/10^6 cells

Question: And the “PPB (% free)” value [6]?
Answer: <1 % free

Question: And the EC50 [10]?
Answer: 7.8 µM

Question: And the “N Mutant fold shift” value ([10]; shift versus RSV A2 EC50)?
Answer: 4.6 x

Question: What about the “shift in activity” value [11] of the same compound?
Answer: greater than 15 fold

Question: What about the EC50 [11] of the same compound?
Answer: > 25 µM

Question: For `Cn1cnc(S(=O)(=O)N2CCCCN3[C@H](CO)[C@@H](c4ccc(-c5ccc(F)cc5)cc4)[C@@H]3C2)c1` [BRD65768], which “activity in the primary screen (RSV replicon), in words” value [1] is on record?
Answer: weak but significant activity

Question: What about the EC50 [1] of the same compound?
Answer: 4.3 µM

Question: And the EC50 [2]?
Answer: 7.5 µM

Question: What about the EC50 [3] of the same compound?
Answer: > 50 µM

Question: What about the Solubility [4] of the same compound?
Answer: 121 µM (≈ 58.6 µg/mL)

Question: And the LogD [5]?
Answer: 3.3

Question: What about the HLM [7] of the same compound?
Answer: 41.2 µL/min/mg

Question: And the Rhep [8]?
Answer: 23.6 μL/min/10^6 cells

Question: And the “PPB (% free)” value [6]?
Answer: 2.1 % free

Question: What about the “hERG (% inh at 11 μM)” value [9] of the same compound?
Answer: 18%

Question: What about the EC50 [10] of the same compound?
Answer: 13.1 µM

Question: And the “N Mutant fold shift” value ([10]; shift versus RSV A2 EC50)?
Answer: 2 x

Question: What about the “shift in activity” value [11] of the same compound?
Answer: > 3 fold

Question: What about the EC50 [11] of the same compound?
Answer: > 25 µM

Question: What about the “L Mutant fold shift” value ([11]; shift versus RSV A2 EC50) of the same compound?
Answer: > 4 x

Question: With `O=C(NC1CC1)c1cc2c(s1)-c1ccccc1N(C(=O)c1ccc(NC(=O)c3ccccc3-c3ccccc3)cc1)CC2` [YM53403] as the compound, how does the EC50 [14] read?
Answer: 0.63 µM

Question: Which EC50 [14] does the source give for `NC(=O)c1ncn([C@@H]2O[C@H](CO)[C@@H](O)[C@H]2O)n1` [ribavirin] here?
Answer: 6.28 µM
